Measured values as given in the supplement of paper PMC11061612.

Columns and labels:
Assay in all cases: Bliss excess, mean over the matrix (fraction); higher = more synergy
[1] = tested on: 23132-87 (Gastric Carcinoma)
Method in brief: (§1)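 After 24 hours at 37°C and 5% CO2 in 1536-well plates, cells in DMEM/F12 or RPMI plus 10% FBS received two-drug dose matrices for 72 hours. Viability came from CellTiter-Glo 2.0 luminescence and was scaled as inhibition, anchored at 0 by vehicle wells and at 1 by blank wells. Combination Emax is taken as the second-highest inhibition in the matrix, and Bliss excess as the observed combination effect less EA + EB − EA·EB, with EA and EB the single-agent effects.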

A2058 (Melanoma) = tested on: A2058 (Melanoma)
Method in brief: as §1

GB-1 (Glioblastoma) = tested on: GB-1 (Glioblastoma)
Method in brief: as §1

[2] = tested on: HCT-15 (Colorectal Carcinoma)
Method in brief: as §1

[3] = tested on: HSC-39 (Gastric Carcinoma)
Method in brief: as §1

IST-MES1 (Mesothelioma) = tested on: IST-MES1 (Mesothelioma)
Method in brief: as §1

[4] = tested on: L-1236 (Hodgkin's Lymphoma)
Method in brief: as §1

[5] = tested on: LXF-289 (Lung Adenocarcinoma)
Method in brief: as §1

[6] = tested on: NCI-H23 (Lung Adenocarcinoma)
Method in brief: as §1

[7] = tested on: NCI-H2342 (Lung Adenocarcinoma)
Method in brief: as §1

[8] = tested on: OVMIU (Ovarian Carcinoma)
Method in brief: as §1

[9] = tested on: PC-3_[JPC-3] (Lung Adenocarcinoma)
Method in brief: as §1

[10] = tested on: RCM-1 (Colorectal Carcinoma)
Method in brief: as §1

[11] = tested on: RERF-GC-1B (Gastric Carcinoma)
Method in brief: as §1

SF268 (Low Grade Glioma) = tested on: SF268 (Low Grade Glioma)
Method in brief: as §1

SF539 (Glioblastoma) = tested on: SF539 (Glioblastoma)
Method in brief: as §1

[12] = tested on: SK-PN-DW (Other Solid Carcinomas)
Method in brief: as §1

[13] = tested on: SU-DHL-10 (B-Cell Non-Hodgkin's Lymphoma)
Method in brief: as §1

WM278 (Melanoma) = tested on: WM278 (Melanoma)
Method in brief: as §1

WM793B (Melanoma) = tested on: WM793B (Melanoma)
Method in brief: as §1

Row | SMILES | Bliss excess [1] | Bliss excess (A2058 (Melanoma)) | Bliss excess (GB-1 (Glioblastoma)) | Bliss excess [2] | Bliss excess [3] | Bliss excess (IST-MES1 (Mesothelioma)) | Bliss excess [4] | Bliss excess [5] | Bliss excess [6] | Bliss excess [7] | Bliss excess [8] | Bliss excess [9] | Bliss excess [10] | Bliss excess [11] | Bliss excess (SF268 (Low Grade Glioma)) | Bliss excess (SF539 (Glioblastoma)) | Bliss excess [12] | Bliss excess [13] | Bliss excess (WM278 (Melanoma)) | Bliss excess (WM793B (Melanoma))
1 | COc1cccc(OCCCN)c1-c1cc(Nc2cnc(C#N)cn2)n[nH]1 [Prexasertib] + C[C@@H]1COCCN1C2=NC(=NC(=C2)C3(CC3)[S@](=N)(=O)C)C4=C5C=CNC5=NC=C4 [AZD6738] (first compound max 1 µM, 7x7, partner max 10 µM) | -0.0085 | 0.0232 | -0.0337 | 0.0391 | -0.0067 | 0.0093 | -0.0199 | -0.0228 | -0.0504 | 0.0378 | 0.0388 | 0.0576 | -0.0307 | -0.119 | -0.0421 | -0.0046 | -0.0438 | -0.0067 | -0.0364 | -0.05
2 | Cc1cc2ncnn2cc1Nc1ncc2c(n1)n(C1CCOCC1)c(=O)n2C [AZD7648] + O=C(c1cc(Cc2n[nH]c(=O)c3ccccc23)ccc1F)N1CCN(C(=O)C2CC2)CC1 [Olaparib] (first compound max 10 µM, 7x7, partner max 10 µM) | 0.003 | -0.0319 | -0.0227 | 0.0666 | -0.0083 | -0.0592 | -0.0394 | -0.0504 | -0.0059 | -0.0548 | -0.0945 | -0.0148 | -0.0789 | -0.076 | -0.0274 | -0.0236 | 0.0223 | -0.0164 | -0.0309 | -0.0136
3 | CN(CCO)CC[C@H](CSc1ccccc1)Nc1ccc(S(=O)(=O)NC(=O)c2ccc(N3CCC([C@@H](O)c4ccccc4-c4ccc(Cl)cc4)CC3)cc2)cc1S(=O)(=O)C(F)(F)F [AZD4320] + CN(C)CCCOc1ccc(-c2ccc3ncc4c(c3c2)n(C2CCOCC2)c(=O)n4C)cn1 [AZD0156] (first compound max 1 µM, 7x7, partner max 1 µM) | -0.0277 | -0.0134 | -0.0272 | -0.0438 | 0.0099 | -0.041 | -0.0001 | -0.0636 | -0.0118 | -0.0214 | -0.0427 | -0.0583 | -0.0538 | 0.0211 | -0.0012 | -0.0163 | -0.0302 | -0.0158 | -0.0148 | -0.0564
4 | CCN(CCO)CCCOc1ccc2c(Nc3cc(CC(=O)Nc4cccc(F)c4)[nH]n3)ncnc2c1 [AZD2811] + C=CCn1c(=O)c2cnc(Nc3ccc(N4CCN(C)CC4)cc3)nc2n1-c1cccc(C(C)(C)O)n1 [AZD1775] (first compound max 1 µM, partner max 1 µM) | 0.0208 | -0.0059 | 0.0002 | 0.156 | 0.0224 | -0.04 | 0.0198 | -0.012 | -0.0005 | -0.0052 | -0.088 | -0.0752 | 0.0398 | 0.0335 | -0.0005 | 0.0972 | 0.0431 | -0.0481 | -0.0199 | 0.02
5 | Cc1c2c(nn1C)CSCc1cc(n(C)n1)CSc1cc(c3ccccc3c1)OCCCc1c(C(=O)O)n(C)c3c-2c(Cl)ccc13 [AZD5991] + CC1(C)CCC(CN2CCN(c3ccc(C(=O)NS(=O)(=O)c4ccc(NCC5CCOCC5)c([N+](=O)[O-])c4)c(Oc4cnc5[nH]ccc5c4)c3)CC2)=C(c2ccc(Cl)cc2)C1 [Venetoclax] (first compound max 1 µM, 7x7, partner max 1 µM) | 0.0019 | 0.0967 | -0.0257 | -0.0087 | 0.0266 | -0.0239 | 0.0632 | 0.0108 | -0.0077 | -0.0599 | -0.0207 | -0.0503 | 0.0136 | -0.0126 | -0.0096 | 0.0187 | 0.0206 | -0.0173 | -0.0393 | -0.0016
6 | CC1(C)CCC(CN2CCN(c3ccc(C(=O)NS(=O)(=O)c4ccc(NCC5CCOCC5)c([N+](=O)[O-])c4)c(Oc4cnc5[nH]ccc5c4)c3)CC2)=C(c2ccc(Cl)cc2)C1 [Venetoclax] + C1CN(CCC1(C(=O)N[C@@H](CCO)C2=CC=C(C=C2)Cl)N)C3=NC=NC4=C3C=CN4 [Capivasertib] (first compound max 1 µM, 7x7, partner max 3 µM) | -0.0427 | -0.0333 | -0.0038 | -0.0383 | -0.0104 | -0.033 | -0.0739 | -0.0275 | -0.0081 | -0.0359 | -0.112 | -0.0399 | -0.0293 | -0.0297 | -0.0095 | -0.0189 | -0.0892 | -0.0078 | -0.0699 | -0.029
7 | CC(=O)c1c(C)c2cnc(Nc3ccc(N4CCNCC4)cn3)nc2n(C2CCCC2)c1=O [Palbociclib] + Cn1cnc2c(F)c(Nc3ccc(Br)cc3Cl)c(C(=O)NOCCO)cc21 [Selumetinib] (first compound max 10 µM, 7x7, partner max 10 µM) | -0.0683 | 0.0131 | -0.0016 | 0.0538 | -0.0069 | -0.0799 | -0.0841 | -0.0054 | -0.0057 | -0.0441 | -0.0097 | -0.0288 | -0.0286 | -0.0329 | -0.0269 | -0.0345 | -0.0164 | 0.0392 | -0.0152 | -0.0173
8 | COc1cccc(OCCCN)c1-c1cc(Nc2cnc(C#N)cn2)n[nH]1 [Prexasertib] + C=CCn1c(=O)c2cnc(Nc3ccc(N4CCN(C)CC4)cc3)nc2n1-c1cccc(C(C)(C)O)n1 [AZD1775] (first compound max 1 µM, partner max 1 µM) | 0.0641 | 0.0994 | 0.0483 | 0.0406 | 0.05 | 0.127 | -0.0943 | 0.0418 | 0.0334 | -0.0136 | 0.0574 | 0.0258 | -0.0248 | 0.049 | 0.0619 | 0.0187 | 0.0025 | 0.0558 | 0.0753 | 0.0129
